Measured values taken from patent US20140330170A1, “Method of Quantifying Cancer Treatment” (Exelixis, Inc., priority 2012, published 2014).

Test system: metastatic CRPC patients with bone metastases
Assay: Adaptive phase 2 trial (NCT00940225): case studies of the first three CRPC patients with bone metastases treated with compound 1
Format: in vivo, human
Excerpt: All patients provided informed consent before study screening.

[1] = Patient 1, best response, 100 mg dose
[2] = Patient 2, best response, 100 mg dose
[3] = Patient 3, best response, 100 mg dose
[4] = three metastatic CRPC patients, summary

COc1cc2nccc(Oc3ccc(NC(=O)C4(C(=O)Nc5ccc(F)cc5)CC4)cc3)c2cc1OC [Compound 1, N-(4-{[6,7-bis(methyloxy)quinolin-4-yl]oxy}phenyl)-N′-(4-fluorophenyl)cyclopropane-1,1-dicarboxamide]
PSA (Patient 1, best response, change from baseline 430.4 ng/mL): −78%
Hemoglobin (Patient 1, best response, change from baseline 13.5 g/dL): +1.4 g/dL
tALP (Patient 1, best response, change from baseline 689 U/L): −77%
Pain [1]: Improvement
Tumor response [1]: −41%
PSA (Patient 2, best response, change from baseline 14.7 ng/mL): +61%
Hemoglobin (Patient 2, best response, change from baseline 13.3 g/dL): +1.8 g/dL
tALP (Patient 2, best response, change from baseline 108 U/L): −6%
Bone scan [2]: Improvement
Pain [2]: Pain-free
Tumor response [2]: −20%
PSA (Patient 3, best response, change from baseline 2.8 ng/mL): −57%
Hemoglobin (Patient 3, best response, change from baseline 10.2 g/dL): +2.2 g/dL
tALP (Patient 3, best response, change from baseline 869 U/L): −77%
Pain [3]: Pain-free
Tumor response [3]: −51%
soft tissue lesions (all three patients, during therapy, summary): evidence of response or stabilization in soft tissue lesions
bone pain (all three patients, summary): substantial reductions in bone pain
uptake of radiotracer on bone scan (all three patients, summary): striking decrease in uptake of radiotracer on bone scan
bone lesions [4]: near complete resolution of bone lesions
bone pain and total serum alkaline phosphatase (tALP) levels [4]: marked reduction in bone pain and total serum alkaline phosphatase (tALP) levels
measurable disease [4]: reduction in measurable disease
